Source: PubChem BioAssay AID1963966 (Molecular Pharmacology Branch, DTP, NCI, 2024)

Test system: 935938-334-R-J1-PDC spheroids with HUVEC/MSC, viability
Assay: Anticancer human tumor 935938-334-R-J1-PDC patient-derived small intestine adenocarcinoma cell line growth inhibition [PI3K]
Details: for IC50: curve of first compound; for viability, T/C: stronger effect = lower value
Text: Combinatorial screen of targeted agents with the PI3K inhibitors inavolisib, alpelisib, duvelisib, and copanlisib in multi-cell type tumor spheroids
A high-throughput screen of multi-cell type tumor spheroids was designed to identify active combinations of targeted small molecules and PI3K pathway inhibitors. Complex spheroids include a stromal component modeled by human endothelial cells (HUVEC) and fibroblasts modeled by human mesenchymal stem cells (MSCs). The concentration ranges selected for each drug and investigational agent were based upon clinically achievable concentrations if the clinical Cmax of the agent was known.
Compounds. The drugs and investigational agents: inavolisib (NSC800729), alpelisib (NSC765974), duvelisib (NSC772469), copanlisib (NSC816437), ipatasertib (NSC767898), afuresertib (NSC778305), talazoparib (NSC767125), sapanisertib (NSC764658), selumetinib (NSC741078), tovorafenib (DAY101, NSC766906), vemurafenib (NSC761431), ravoxertinib (NSC781343), sotorasib (NSC818433), MRTX1133 (NSC 836407), abemaciclib (NSC 768073), palbociclib (NSC758247), venetoclax (NSC 766270), SY5609 (NSC837396), enzalutamide (NSC755605), and darolutamide (NSC825331), were obtained from the National Cancer Institute (NCI) Developmental Therapeutics Program Chemical Repository. The FDA-approved anticancer drug set is available from the NCI Developmental Therapeutics Program. […] The stock solutions were prepared in dimethyl sulfoxide (DMSO, Sigma-Aldrich, St. Louis, MO, cat. D2650) at 800-fold the tested concentration and stored at -70 degrees C prior to their use. All drugs and investigational agents were tested over a range starting from a high concentration at or near the clinical Cmax and decreasing in half-log increments. If the clinical Cmax for an agent had not been determined, the highest concentration tested was 10 microM.
Cell Culture. All cells were maintained in an incubator at 37 degrees C and 5% CO2 with 95% humidity. The PDC lines were cultured according to standard operating procedures established by the NCI PDMR (https://pdmr.cancer.gov/sops/default.htm). All PDCs were thawed and cultured in Matrigel-coated flasks prepared with a working solution of 1X Ham's F-12 nutrient mix, without supplementation (Invitrogen, Waltham, MA, cat. 11765054), 100 U/mL penicillin-streptomycin (Invitrogen, cat. 15140122), and 2.5% Matrigel (Corning Inc., Corning, NY, cat. 354248) for the first three passages. The 354836-022-R-J1-PDC, 475296-252-R-J1-PDC, and 997726-040-R-J2-PDC lines were cultured in 6A media, which includes advanced DMEM/F-12 (Thermo Fisher Scientific, cat. 12634028), 10 mM HEPES (Thermo Fisher Scientific, cat. 15630080), 1X GlutaMAX supplement (Thermo Fisher Scientific, cat. 35050061), 0.1 mg/mL primocin (InvivoGen, San Diego, CA, cat. ant-pm-2), 10% defined fetal bovine serum, heat inactivated (HyClone Laboratories Inc., Logan, UT, cat. SH30070.03HI), 50% L-WRN conditioned media (ATCC, cat. CRL-3276), 1.25 mM N-Acetyl-L-cysteine (Sigma-Aldrich, cat. A9165), 10 mM nicotinamide (Sigma-Aldrich, cat. N0636), 1X B-27 supplement (Thermo Fisher Scientific, cat. 17504044), 1X N-2 supplement (Thermo Fisher Scientific, cat. 17502048), and 10 microM Y-27632 dihydrochloride (Tocris Bioscience, Bristol, United Kingdom, cat. 1254). The 624824-186-R-J2-PDC line was cultured in 6C/Colon 1B media, which includes all 6A media components plus 50 ng/mL human EGF recombinant protein (Thermo Fisher Scientific, cat. PHG0311). […]

[1] = second compound 0.00316 µM, first compound 0.0316 µM
[2] = second compound 0.00316 µM, first compound 0.1 µM
[3] = second compound 0.00316 µM, first compound 0.316 µM
[4] = second compound 0.00316 µM, first compound 1 µM
[5] = second compound 0.00316 µM, first compound 3.16 µM
[6] = second compound 0.00316 µM, first compound 10 µM
[7] = second compound 0.01 µM, first compound 0.0316 µM
[8] = second compound 0.01 µM, first compound 0.1 µM
[9] = second compound 0.01 µM, first compound 0.316 µM
[10] = second compound 0.01 µM, first compound 1 µM
[11] = second compound 0.01 µM, first compound 3.16 µM
[12] = second compound 0.01 µM, first compound 10 µM
[13] = second compound 0.0316 µM, first compound 0.0316 µM
[14] = second compound 0.0316 µM, first compound 0.1 µM
[15] = second compound 0.0316 µM, first compound 0.316 µM
[16] = second compound 0.0316 µM, first compound 1 µM
[17] = second compound 0.0316 µM, first compound 3.16 µM
[18] = second compound 0.0316 µM, first compound 10 µM
[19] = second compound 0.1 µM, first compound 0.0316 µM
[20] = second compound 0.1 µM, first compound 0.1 µM
[21] = second compound 0.1 µM, first compound 0.316 µM
[22] = second compound 0.1 µM, first compound 1 µM
[23] = second compound 0.1 µM, first compound 3.16 µM
[24] = second compound 0.1 µM, first compound 10 µM
[25] = second compound 0.316 µM, first compound 0.0316 µM
[26] = second compound 0.316 µM, first compound 0.1 µM
[27] = second compound 0.316 µM, first compound 0.316 µM
[28] = second compound 0.316 µM, first compound 1 µM
[29] = second compound 0.316 µM, first compound 3.16 µM
[30] = second compound 0.316 µM, first compound 10 µM
[31] = second compound 1 µM, first compound 0.0316 µM
[32] = second compound 1 µM, first compound 0.1 µM
[33] = second compound 1 µM, first compound 0.316 µM
[34] = second compound 1 µM, first compound 1 µM
[35] = second compound 1 µM, first compound 3.16 µM
[36] = second compound 1 µM, first compound 10 µM
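Also: compound exposure lasted seven days before viability was read.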
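For viability, T/C in this document: percent of vehicle DMSO treated spheroid viability so 100% = untreated.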

**Q.** Which results are given for `CC1(C)CCC(CN2CCN(c3ccc(C(=O)NS(=O)(=O)c4ccc(NCC5CCOCC5)c([N+](=O)[O-])c4)c(Oc4cnc5[nH]ccc5c4)c3)CC2)=C(c2ccc(Cl)cc2)C1` + CC(Nc1ccc2c(c1)OCCn1cc(N3C(=O)OCC3C(F)F)nc1-2)C(N)=O?
**A.** IC50 (second compound 0.00316 µM): 6.27 µM; IC50 (second compound 0.01 µM): 6 µM; IC50 (second compound 0.0316 µM): 5.41 µM; IC50 (second compound 0.1 µM): 6 µM; IC50 (second compound 0.316 µM): 5.04 µM; IC50 (second compound 1 µM): 3.21 µM; viability, T/C [1]: 85.9%; viability, T/C [2]: 78.6%; viability, T/C [3]: 106%; viability, T/C [4]: 115%; viability, T/C [5]: 90.3%; viability, T/C [6]: 22.5%; viability, T/C [7]: 88.7%; viability, T/C [8]: 95.1%; viability, T/C [9]: 120%; viability, T/C [10]: 83.1%; viability, T/C [11]: 80.8%; viability, T/C [12]: 26.8%; viability, T/C [13]: 90.5%; viability, T/C [14]: 78.8%; viability, T/C [15]: 76.2%; viability, T/C [16]: 103%; viability, T/C [17]: 74.4%; viability, T/C [18]: 22.1%; viability, T/C [19]: 88.5%; viability, T/C [20]: 90.9%; viability, T/C [21]: 84.5%; viability, T/C [22]: 82%; viability, T/C [23]: 100%; viability, T/C [24]: 18.6%; viability, T/C [25]: 69.6%; viability, T/C [26]: 71.3%; viability, T/C [27]: 76.3%; viability, T/C [28]: 68.8%; viability, T/C [29]: 72.7%; viability, T/C [30]: 18.7%; viability, T/C [31]: 62.6%; viability, T/C [32]: 59.7%; viability, T/C [33]: 57%; viability, T/C [34]: 65.2%; viability, T/C [35]: 47.6%; viability, T/C [36]: 20.3%

**Q.** What does the source list for `C[C@@H](NC(=O)c1ncnc(N)c1Cl)c1ncc(C(=O)Nc2cc(C(F)(F)F)c(Cl)cn2)s1` + CC(Nc1ccc2c(c1)OCCn1cc(N3C(=O)OCC3C(F)F)nc1-2)C(N)=O?
**A.** IC50 (second compound 0.00316 µM): > 10 µM; IC50 (second compound 0.01 µM): > 10 µM; IC50 (second compound 0.0316 µM): > 10 µM; IC50 (second compound 0.1 µM): > 10 µM; IC50 (second compound 0.316 µM): 9.36 µM; IC50 (second compound 1 µM): 9.57 µM; viability, T/C [1]: 97.2%; viability, T/C [2]: 92.4%; viability, T/C [3]: 104%; viability, T/C [4]: 110%; viability, T/C [5]: 87.5%; viability, T/C [6]: 99.4%; viability, T/C [7]: 95.3%; viability, T/C [8]: 88.6%; viability, T/C [9]: 105%; viability, T/C [10]: 107%; viability, T/C [11]: 111%; viability, T/C [12]: 90.5%; viability, T/C [13]: 94.8%; viability, T/C [14]: 88.8%; viability, T/C [15]: 92.7%; viability, T/C [16]: 113%; viability, T/C [17]: 99.6%; viability, T/C [18]: 80.3%; viability, T/C [19]: 89%; viability, T/C [20]: 98.4%; viability, T/C [21]: 100%; viability, T/C [22]: 107%; viability, T/C [23]: 92.6%; viability, T/C [24]: 85.6%; viability, T/C [25]: 108%; viability, T/C [26]: 111%; viability, T/C [27]: 83.7%; viability, T/C [28]: 79%; viability, T/C [29]: 104%; viability, T/C [30]: 47.2%; viability, T/C [31]: 66.7%; viability, T/C [32]: 95.4%; viability, T/C [33]: 78.4%; viability, T/C [34]: 86.5%; viability, T/C [35]: 90%; viability, T/C [36]: 48.7%
